The results in this text go back to patent publication US5324725A, “7-fused 2-(piperazinoalkyl) indole derivatives, intermediates and compositions thereof” (Kali-Chemie Pharma GmbH, priority 1991, dated 1994).

Assay [1] deals with Passive cutaneous anaphylaxis (P.C.A.). Briefly: Inhibition of passive cutaneous anaphylaxis (P.C.A.). Type of assay: in vivo, rat (Sprague-Dawley). To be noted: Rattus norvegicus, 1 h; rats, 2 × 10^-5 mol/kg p.o., one hour before ovalbumin challenge. An outline of the steps:
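Sprague-Dawley rats (150-180 g) were sensitized intradermally with rat IgE-rich anti-ovalbumin serum and challenged 24 h later with i.v. ovalbumin 8.25 mg/kg plus Evans blue. Compound was given orally at 2×10^-5 mol/kg 1 h before challenge. Dye exudation was scored visually at 30 min as % inhibition versus vehicle controls.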

For assay [2], the system named is P.A.F.-induced aggregation of platelets from rabbit blood. As to the kind of experiment: Anti-P.A.F. effect in vitro: inhibition of P.A.F.-induced platelet aggregation. Type of assay: cell-based, rabbit (New Zealand hybrids). Particulars: Oryctolagus cuniculus, Platelet, test substance concentration 10^-5 mol/l. The method in brief: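 Washed, aspirin-treated rabbit platelets (4×10^9/ml stock suspension) in modified Tyrode buffer, pH 7.4, preincubated 90 s with test compound at 10^-5 mol/l final, then challenged with P.A.F. Aggregation followed 4–5 min in an aggregometer. Inhibition expressed in % relative to P.A.F.-only (100%) and platelet-only (0%) controls.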

With `Cc1ccnc(N2CCN(CCc3c(C)n4c5c(cc(C)cc35)CCC4)CC2)c1` [Example 54], in assay [1], the inhibition in vivo at 20 µmol/kg is 93%. In addition, in assay [2], testing at 10 µM gave an inhibition of 75%.
Take `Cc1cc2c3c(c1)c(CCN1CCC(C(=O)c4ccc(F)cc4)CC1)c(C)n3CCC2` [Example 55]: the inhibition in vivo at 20 µmol/kg in assay [1] was determined as 80%. Further, the inhibition at 10 µM in assay [2] stood at 40%.
In the same order, the values of `Cc1ccnc(N2CCN(CCc3c(C)n4c5c(cccc35)C(C)CC4)CC2)c1` (centres unmarked) [Example 57] are 100% and 86%.
The like results for `COc1ccc(C2CCc3cccc4c(CCN5CCN(c6cc(C)ccn6)CC5)c(C)n2c34)cc1` (centres unmarked) [Example 59] were, in that order, 95% and 89%.
Compound `Cc1ccnc(N2CCN(CCc3c(C)n4c5c(cc(NC(=O)C(C)C)cc35)CCC4)CC2)c1` [Example 60] showed an inhibition in vivo at 20 µmol/kg in assay [1] of 100%. Further, the inhibition at 10 µM in assay [2] amounted to 44%.
Turning to `Cc1ccnc(N2CCN(CCc3c(C)n4c5c(cccc35)CCC4c3ccc(O)cc3)CC2)c1` (centres unmarked) [Example 61], the inhibition in vivo at 20 µmol/kg in assay [1] came out at 100%. Moreover, the inhibition at 10 µM in assay [2] was found to be 83%.
The like results for `C=CCCC1CCc2cccc3c(CCN4CCN(c5cc(C)ccn5)CC4)c(C)n1c23` (centres unmarked) [Example 62] were, in that order, 100% and 70%.
In the same order, the values of `CCCCC1CCc2cc(OC)cc3c(CCN4CCN(c5cc(C)ccn5)CC4)c(C)n1c23` (centres unmarked) [Example 63] are 100% and 98%.
On to `COc1ccc(C2CCc3cc(OC)cc4c(CCN5CCN(c6cc(C)ccn6)CC5)c(C)n2c34)cc1` (centres unmarked) [Example 65], for which the inhibition in vivo at 20 µmol/kg in assay [1] was 100%. The same compound displayed an inhibition at 10 µM in assay [2] of 100%.
Compound `Cc1ccnc(N2CCN(CCc3c(C)n4c5c(cc(C(=O)c6ccccc6)cc35)CCC4)CC2)c1` [Example 66] yielded an inhibition in vivo at 20 µmol/kg in assay [1] of 80%. Moreover, 10 µM produced 100% inhibition in assay [2].
For the compound `CC(=O)c1cc2c3c(c1)c(CCN1CCN(c4cc(C)ccn4)CC1)c(C)n3CCC2` [Example 67], the inhibition in vivo at 20 µmol/kg in assay [1] amounted to 100%. Further, in assay [2], the inhibition at 10 µM amounted to 76%.
In assay [1], `CCCCC1CCc2cccc3c(CCN4CCN(c5cc(C)ccn5)CC4)c(C)n1c23` (centres unmarked) [Example 73, 4-n-butyl-5,6-dihydro-2-methyl-1-{2-[4-(4-methylpyridin-2-yl)piperazin-1-yl]ethyl}-4H-pyrrolo[3,2,1-ij]quinoline] had an inhibition in vivo at 20 µmol/kg of 100%. Further, the inhibition at 10 µM in assay [2] was found to be 99%.
In the same order, the values of `CCCCC1CCc2cc(O)cc3c(CCN4CCN(c5cc(C)ccn5)CC4)c(C)n1c23` (centres unmarked) [Example 76] are 100% and 99%.
For `Cc1ccnc(N2CCN(CCc3c(C)n4c5c(cc(Cc6ccccc6)cc35)CCC4)CC2)c1` [Example 77], in assay [1], the inhibition in vivo at 20 µmol/kg was 60%. This compound also yielded an inhibition at 10 µM in assay [2] of 100%.
`Cc1ccnc(N2CCN(CCc3c(C)n4c5c(ccc(C(O)C(C)C)c35)SCC4)CC2)c1` (centres unmarked) [Example 90]: the inhibition in vivo at 20 µmol/kg in assay [1] worked out at 81%. Further, the inhibition at 10 µM in assay [2] was determined as 64%.
`Cc1ccnc(N2CCN(CCc3c(C)n4c5c(ccc(C(=O)C(C)C)c35)SCC4)CC2)c1` [Example 91] displayed an inhibition in vivo at 20 µmol/kg in assay [1] of 86%. This compound yielded an inhibition at 10 µM in assay [2] of 58%.
